Assay results: US20120214862A1, “MODULATION OF FACTOR 7 EXPRESSION” (ISIS Pharmaceuticals, Inc., priority 2009, published 2012)
In the oligonucleotide strings, read from the 5' end, every base follows the letter of its sugar. An asterisk marks phosphorothioate; unmarked linkages are phosphodiester. Other units and linkages are bracketed, terminal groups are in braces. A string of capitals states the bases alone. e = 2'-O-(2-methoxyethyl) (MOE); [5mC] = 5-methylcytosine; d = 2'-deoxy (DNA)

Tests used:
Assay type in all cases: cell-based
human Factor 7 mRNA [1] = test: Antisense inhibition of human Factor 7 mRNA in HepB3 cells, lipofectin, 50 nM, real-time RT-PCR; details: HepB3 cells
Summary of the method: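 After transfection of wells containing 4,000 cells, treatment ran for approximately 24 h. RIBOGREEN®-measured total RNA served for normalisation, and inhibition was calculated as a percentage of untreated control.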

human Factor 7 mRNA [2] = test: Dose-dependent antisense inhibition of human Factor 7 in HepB3 cells, transfection with lipofectin; details: for percent inhibition of Factor 7 mRNA, 6.25 nM / percent inhibition of Factor 7 mRNA, 12.5 nM / percent inhibition of Factor 7 mRNA, 25.0 nM / percent inhibition of Factor 7 mRNA, 50.0 nM / percent inhibition of Factor 7 mRNA, 100.0 nM: Example 5, HepB3, lipofectin, ~16 h; for percent inhibition of Factor 7 mRNA, relative to untreated control cells: lipofectin, HepB3 cells, 16 hours
Experimental: Cells were plated at a density of 4,000 cells per well and treated with lipofectin reagent with 3.125 nM, 6.25 nM, 12.5 nM, 25 nM, 50 nM, and 100 nM concentrations of antisense oligonucleotide, as indicated in Table 3. After a treatment period of approximately 16 hours, RNA was isolated from the cells and Factor 7 mRNA levels were measured by real-time RT-PCR, as described herein. Human Factor 7 primer probe set RTS 2927 (forward sequence: […], incorporated herein as SEQ ID NO: 164; reverse sequence: […], incorporated herein as SEQ ID NO: 165; probe sequence: TGGGTGGTCTCCGCGGCCX, incorporated herein as SEQ ID NO: 166) was used to measure mRNA levels. Factor 7 mRNA levels were adjusted according to total RNA content as measured by RIBOGREEN®. Results are presented as percent inhibition of Factor 7, relative to untreated control cells.
Cells were plated at a density of 4,000 cells per well and transfected using lipofectin reagent with 6.25 nM, 12.5 nM, 25.0 nM, 50.0 nM, and 100.0 nM concentrations of antisense oligonucleotide, as indicated in Table 7. After a treatment period of approximately 16 hours, RNA was isolated from the cells and Factor 7 mRNA levels were measured by real-time RT-PCR, as described herein. Human Factor 7 primer probe set RTS 2927 was used to measure mRNA levels. Factor 7 mRNA levels were adjusted according to total RNA content as measured by RIBOGREEN®. Results are presented as percent inhibition of Factor 7, relative to untreated control cells.
Cells were plated at a density of 4,000 cells per well and transfected using lipofectin reagent with 3.125 nM, 6.25 nM, 12.5 nM, 25 nM, 50 nM, and 100 nM concentrations of antisense oligonucleotide, as specified in Table 14. After a treatment period of approximately 16 hours, RNA was isolated from the cells and Factor 7 mRNA levels were measured by quantitative real-time PCR. Human Factor 7 primer probe set RTS 2927 was used to measure mRNA levels. Factor 7 mRNA levels were adjusted according to total RNA content, as measured by RIBOGREEN®. Results are presented as percent inhibition of Factor 7, relative to untreated control cells.

human Factor 7 mRNA [3] = test: Inhibition of human Factor 7 mRNA by 2-10-2 MOE shortmers in HepB3 cells, electroporation, 1,000 nM; details: electroporation, 1,000 nM oligonucleotide, approximately 24 hours, relative to untreated control cells
Description: Short antisense oligonucleotides (shortmers) were designed to target a Factor 7 nucleic acid. The shortmers in Table 17 were designed as 2-10-2 MOE gapmers. The gapmers are 14 nucleotides in length, wherein the central gap segment is comprised of 10 2′-deoxynucleotides and is flanked on both sides (in the 5′ and 3′ directions) by wings comprising 2 nucleotides each. Each nucleotide in the 5′ wing segment and each nucleotide in the 3′ wing segment has a 2′-MOE modification. The internucleoside linkages throughout each gapmer are phosphorothioate (P═S) linkages. All cytidine residues throughout each gapmer are 5-methylcytidines.
Shortmers were evaluated for their ability to reduce human Factor 7 mRNA in HepB3 cells and compared with one 5-10-5 chimeric oligonucleotide from Table 16, ISIS 407939. HepB3 cells at a density of 20,000 cells per well in a 96-well plate were transfected using electroporation with 1,000 nM of antisense oligonucleotide. After a treatment period of approximately 24 hours, RNA was isolated from the cells and Factor 7 mRNA levels were measured by real-time RT-PCR, as described herein. Factor 7 mRNA levels were adjusted according to total RNA content as measured by RIBOGREEN®. Results are presented in Table 17 as percent inhibition of Factor 7 mRNA, relative to untreated control cells. ISIS 407939 is the first oligonucleotide in […] to which the shortmers were compared, and is marked by an asterisk (*).

[4] = lipofectin, 50 nM antisense oligonucleotide, approximately 24 hours, primer probe set RTS 2927, relative to untreated control
[5] = gapmers (5-10-5, 3-14-3, 2-13-5 MOE) targeted to nucleobases 4868 to 4899 of SEQ ID NO: 1

Row | Substance | % Inhibition of human Factor 7 mRNA levels (human Factor 7 mRNA [1]; [4]) | percent inhibition of Factor 7 mRNA, 6.25 nM (human Factor 7 mRNA [2]) | percent inhibition of Factor 7 mRNA, 12.5 nM (human Factor 7 mRNA [2]; 12.5 nM) | percent inhibition of Factor 7 mRNA, 25.0 nM (human Factor 7 mRNA [2]) | percent inhibition of Factor 7 mRNA, 50.0 nM (human Factor 7 mRNA [2]) | percent inhibition of Factor 7 mRNA, 100.0 nM (human Factor 7 mRNA [2]) | % inhibition of human Factor 7 mRNA (human Factor 7 mRNA [3]) | further results
1 | 416438 (antisense e[5mC]*eA*eG*eG*eA*dG*d[5mC]*d[5mC]*d[5mC]*d[5mC]*d[5mC]*dA*dT*dT*d[5mC]*eT*eG*eG*e[5mC]*eA) [compound 416438] | 63% | 11% | 33% | 56% | 75% | 82% |  | 
2 | 416446 (antisense eG*eG*eT*e[5mC]*eA*d[5mC]*dT*dG*d[5mC]*dA*dG*dT*dA*d[5mC]*dT*eG*e[5mC]*eT*e[5mC]*eA) [compound 416446] | 64% | 25% | 24% | 50% | 69% | 64% |  | 
3 | 416449 (antisense eT*eA*eG*eG*eT*dA*dT*dT*dT*dT*dT*d[5mC]*d[5mC]*dA*d[5mC]*eA*eT*eG*eG*eA) [compound 416449] | 68% | 19% | 33% | 45% | 65% | 85% |  | 
4 | 416455 (antisense e[5mC]*eG*e[5mC]*e[5mC]*eG*dG*d[5mC]*dT*d[5mC]*dT*dG*d[5mC]*dT*d[5mC]*dA*eT*e[5mC]*e[5mC]*e[5mC]*e[5mC]) [compound 416455] | 72% | 28% | 44% | 64% | 78% | 87% |  | % Inhibition of human Factor 7 mRNA levels (human Factor 7 mRNA [1]; gapmers targeted to nucleobases 13760 to 13789 of SEQ ID NO: 1 (Table 10)): 51%
5 | 416472 (antisense e[5mC]*eA*eG*e[5mC]*e[5mC]*dT*dT*dG*dG*d[5mC]*dT*dT*dT*d[5mC]*dT*e[5mC]*eT*e[5mC]*e[5mC]*eA) [compound 416472] | 76% | 16% | 44% | 64% | 80% | 88% |  | 
6 | 416477 (antisense e[5mC]*eA*eG*e[5mC]*e[5mC]*dT*dG*dA*dG*dG*d[5mC]*d[5mC]*dA*dG*d[5mC]*eA*eG*eA*eT*e[5mC]) [compound 416477] | 74% | 21% | 46% | 64% | 78% | 87% |  | % Inhibition of human Factor 7 mRNA levels (human Factor 7 mRNA [1]; gapmers targeted to nucleobases 14707 to 14732 of SEQ ID NO: 1 (Table 11)): 71%
7 | 416507 (antisense eG*eG*eT*eT*eA*d[5mC]*dT*dG*dA*dG*d[5mC]*dG*d[5mC]*dG*dG*eA*eA*eG*eA*eA) [compound 416507] | 73% | 30% | 53% | 70% | 77% | 72% |  | 
8 | 416508 (antisense e[5mC]*eG*eA*eG*eT*dT*d[5mC]*dT*dG*d[5mC]*dA*dG*dG*dA*dG*e[5mC]*eG*eG*e[5mC]*e[5mC]) [compound 416508] | 67% | 42% | 51% | 71% | 79% | 89% |  | % Inhibition of human Factor 7 mRNA levels (human Factor 7 mRNA [1]; [5]): 67%
9 | 416549 (antisense eG*eA*e[5mC]*eA*eA*dT*dG*dG*dT*d[5mC]*dA*dG*dG*dG*d[5mC]*eT*eG*eG*eT*eT) [compound 416549] | 68% | 38% | 44% | 63% | 73% | 78% |  | % Inhibition of human Factor 7 mRNA levels (human Factor 7 mRNA [1]; gapmers targeted to nucleobases 11830 to 11869 of SEQ ID NO: 1 (Table 9)): 69%
10 | 422294 (antisense eG*eA*dG*dT*dT*d[5mC]*dT*dG*d[5mC]*dA*dG*dG*dA*dG*d[5mC]*eG*eG*e[5mC]*e[5mC]*eT) [compound 422294] |  |  |  |  |  |  |  | % Inhibition of human Factor 7 mRNA levels (human Factor 7 mRNA [1]; [5]): 78%; percent inhibition of Factor 7 mRNA, relative to untreated control cells (human Factor 7 mRNA [2]; 3.125 nM): 9%; percent inhibition of Factor 7 mRNA, relative to untreated control cells (human Factor 7 mRNA [2]; 12.5 nM): 32%; percent inhibition of Factor 7 mRNA, relative to untreated control cells (human Factor 7 mRNA [2]; 25 nM): 61%; percent inhibition of Factor 7 mRNA, relative to untreated control cells (human Factor 7 mRNA [2]; 50 nM): 77%; percent inhibition of Factor 7 mRNA, relative to untreated control cells (human Factor 7 mRNA [2]; 100 nM): 84%; percent inhibition of Factor 7 mRNA, relative to untreated control cells (human Factor 7 mRNA [2]): 21%
11 | 435478 (antisense eG*eA*dG*dG*d[5mC]*dA*d[5mC]*dA*d[5mC]*dT*dG*dG*eT*e[5mC]) [compound 435478] |  |  |  |  |  |  | 43% | 
12 | 435479 (antisense e[5mC]*eA*d[5mC]*dT*d[5mC]*d[5mC]*d[5mC]*d[5mC]*dT*dT*dT*dG*eG*eG) [compound 435479] |  |  |  |  |  |  | 9% | 
13 | 435480 (antisense eG*eG*dT*d[5mC]*dA*dT*d[5mC]*dA*dG*d[5mC]*d[5mC]*dG*eG*eG) [compound 435480] |  |  |  |  |  |  | 53% | 
14 | 435481 (antisense eG*eG*dG*dT*d[5mC]*dA*dT*d[5mC]*dA*dG*d[5mC]*d[5mC]*eG*eG) [compound 435481] |  |  |  |  |  |  | 50% | 
15 | 435482 (antisense eT*eG*dG*dG*dT*d[5mC]*dA*dT*d[5mC]*dA*dG*d[5mC]*e[5mC]*eG) [compound 435482] |  |  |  |  |  |  | 62% | 
16 | 435483 (antisense e[5mC]*eT*dG*dG*dG*dT*d[5mC]*dA*dT*d[5mC]*dA*dG*e[5mC]*e[5mC]) [compound 435483] |  |  |  |  |  |  | 82% | 
17 | 435484 (antisense e[5mC]*e[5mC]*dT*dG*dG*dG*dT*d[5mC]*dA*dT*d[5mC]*dA*eG*e[5mC]) [compound 435484] |  |  |  |  |  |  | 45% | 
18 | 435485 (antisense eT*e[5mC]*d[5mC]*dT*dG*dG*dG*dT*d[5mC]*dA*dT*d[5mC]*eA*eG) [compound 435485] |  |  |  |  |  |  | 34% | 
19 | 435486 (antisense eG*eT*d[5mC]*d[5mC]*dT*dG*dG*dG*dT*d[5mC]*dA*dT*e[5mC]*eA) [compound 435486] |  |  |  |  |  |  | 64% | 
20 | 435487 (antisense eA*eG*dT*d[5mC]*d[5mC]*dT*dG*dG*dG*dT*d[5mC]*dA*eT*e[5mC]) [compound 435487] |  |  |  |  |  |  | 36% | 
